Results from ChEMBL document CHEMBL5576135, “Discovery of Indolo[3,2-c]isoquinoline Derivatives as Novel Top1/2 Dual Inhibitors with Orally Efficacious Antitumor Activity and Low Toxicity” (J Med Chem, 2024).
pIC50: −log10 of the molar value. Active and inactive are the calls of the source. No cut-off for these calls is given here.

Key:
NCI-H446 [1] = assay: Inhibition of colony formation in human NCI-H446 cells at 2 uM incubated for 24 hrs by crystal violet staining based analysis relative to control; format: functional
Cell membrane = assay: Induction of mitochondrial membrane potential loss in human NCI-H446 cells at 8 uM incubated for 24 hrs by JC-1 staining based flow cytometry; format: cell membranes
HCT-116 = assay: Antiproliferative activity against human HCT-116 cells assessed as inhibition of cell growth incubated for 96 hrs by MTT based ELISA; format: functional; details: HCT-116, 96 h
[2] = molecular target: DNA topoisomerase 2-alpha (Homo sapiens) (UniProt P11388); assay: Inhibition of Topoisomerase 2 (unknown origin) using pBR322 DNA as substrate at 0.5 uM incubated for 15 mins by EtBr staining based agarose gel electrophoresis method
[3] = Toxicity in Kunming mouse assessed as change in serum creatinine level at 100 mg/kg,po administration for 2 weeks; format: organism-based; details: in vivo, 336 h
DU-145 = assay: Antiproliferative activity against human DU-145 cells assessed as inhibition of cell growth incubated for 96 hrs by MTT based ELISA; format: functional; details: DU-145, 96 h
NCI-H1975 = assay: Antiproliferative activity against human NCI-H1975 cells assessed as inhibition of cell growth incubated for 96 hrs by MTT based ELISA; format: functional; details: NCI-H1975, 96 h
MCF7 = assay: Antiproliferative activity against human MCF7 cells assessed as inhibition of cell growth incubated for 96 hrs by MTT based ELISA; format: functional; details: MCF7, 96 h
[4] = molecular target: DNA topoisomerase 2-alpha (Homo sapiens) (UniProt P11388); assay: Inhibition of Topoisomerase 2 (unknown origin) using pBR322 DNA as substrate at 100 uM incubated for 15 mins by EtBr staining based agarose gel electrophoresis method relative to control
[5] = Antiproliferative activity against human BEAS-2B cells assessed as inhibition of cell growth incubated for 96 hrs by MTT based ELISA; format: toxicity
[6] = Toxicity in Kunming mouse assessed as change in organ coefficient of lung at 100 mg/kg,po administration for 2 weeks; format: organism-based; details: in vivo, 336 h
[7] = Toxicity in Kunming mouse assessed as change in organ coefficient of liver at 100 mg/kg,po administration for 2 weeks; format: organism-based; details: in vivo, 336 h
[8] = Toxicity in Kunming mouse assessed as morphological change in kidney at 100 mg/kg,po administration for 2 weeks; format: organism-based; details: in vivo, 336 h
PC-9 = assay: Antiproliferative activity against human PC-9 cells assessed as inhibition of cell growth incubated for 96 hrs by MTT based ELISA; format: functional; details: PC-9, 96 h
NCI-H446 [9] = assay: Antiproliferative activity against human NCI-H446 cells assessed as inhibition of cell growth incubated for 96 hrs by MTT based ELISA; format: functional; details: NCI-H446, 96 h
[10] = Toxicity in Kunming mouse assessed as change in organ coefficient of kidney at 100 mg/kg,po administration for 2 weeks; format: organism-based; details: in vivo, 336 h
NCI-H446 [11] = assay: Induction of apoptosis in human NCI-H446 cells at 8 uM incubated for 48 hrs by Annexin V-FITC/PI staining based flow cytometry relative to control; format: functional
[12] = Toxicity in Kunming mouse assessed as change in serum ALT level at 100 mg/kg,po administration for 2 weeks; format: organism-based; details: in vivo, 336 h
[13] = Toxicity in Kunming mouse assessed as morphological change in liver at 100 mg/kg,po administration for 2 weeks; format: organism-based; details: in vivo, 336 h
PC-3 = assay: Antiproliferative activity against human PC-3 cells assessed as inhibition of cell growth incubated for 96 hrs by MTT based ELISA; format: functional; details: PC-3, 96 h
[14] = Toxicity in Kunming mouse assessed as lethal dose at po administration for 2 weeks; format: organism-based; details: in vivo
[15] = molecular target: DNA topoisomerase 2-alpha (Homo sapiens) (UniProt P11388); assay: Inhibition of Topoisomerase 2 (unknown origin) using pBR322 DNA as substrate at 50 uM incubated for 15 mins by EtBr staining based agarose gel electrophoresis method
[16] = Cmax in ICR mouse at 10 mg/kg,po measured upto 24 hrs by LC-MS/MS analysis; format: ADME, organism-based; details: in vivo
A549 = assay: Antiproliferative activity against human A549 cells assessed as inhibition of cell growth incubated for 96 hrs by MTT based ELISA; format: functional; details: A549, 96 h
NCI-H446 [17] = assay: Induction of cell cycle arrest in human NCI-H446 cells assessed as accumulation of cells at S phase at 2 uM incubated for 48 hrs by propidium iodide/RNase A staining based flow cytometry relative to control; format: functional
NCI-H446 [18] = assay: Induction of DNA damage in human NCI-H446 cells assessed as tail DNA at 8 uM incubated for 48 hrs by comet assay relative to control; format: functional
[19] = Tmax in ICR mouse at 10 mg/kg,po measured upto 24 hrs by LC-MS/MS analysis; format: ADME, organism-based; details: in vivo
MDA-MB-231 = assay: Antiproliferative activity against human MDA-MB-231 cells assessed as inhibition of cell growth incubated for 96 hrs by MTT based ELISA; format: functional; details: MDA-MB-231, 96 h
NCI-H446 [20] = assay: Induction of DNA damage in human NCI-H446 cells assessed as increase in intracellular gamma-H2AX level at 2 to 8 uM incubated for 48 hrs by Western blotting analysis; format: functional, cell-based; details: dose 2-8 µM
[21] = Toxicity in Kunming mouse assessed as change in body weight at 100 mg/kg,po administration for 2 weeks; format: organism-based; details: in vivo, 336 h
NCI-H2228 = assay: Antiproliferative activity against human NCI-H2228 cells assessed as inhibition of cell growth incubated for 96 hrs by MTT based ELISA; format: functional; details: NCI-H2228, 96 h
[22] = Toxicity in Kunming mouse assessed as morphological change in heart at 100 mg/kg,po administration for 2 weeks; format: organism-based; details: in vivo, 336 h

Chain of DNA topoisomerase 2-alpha (Homo sapiens) (P11388 whole entry): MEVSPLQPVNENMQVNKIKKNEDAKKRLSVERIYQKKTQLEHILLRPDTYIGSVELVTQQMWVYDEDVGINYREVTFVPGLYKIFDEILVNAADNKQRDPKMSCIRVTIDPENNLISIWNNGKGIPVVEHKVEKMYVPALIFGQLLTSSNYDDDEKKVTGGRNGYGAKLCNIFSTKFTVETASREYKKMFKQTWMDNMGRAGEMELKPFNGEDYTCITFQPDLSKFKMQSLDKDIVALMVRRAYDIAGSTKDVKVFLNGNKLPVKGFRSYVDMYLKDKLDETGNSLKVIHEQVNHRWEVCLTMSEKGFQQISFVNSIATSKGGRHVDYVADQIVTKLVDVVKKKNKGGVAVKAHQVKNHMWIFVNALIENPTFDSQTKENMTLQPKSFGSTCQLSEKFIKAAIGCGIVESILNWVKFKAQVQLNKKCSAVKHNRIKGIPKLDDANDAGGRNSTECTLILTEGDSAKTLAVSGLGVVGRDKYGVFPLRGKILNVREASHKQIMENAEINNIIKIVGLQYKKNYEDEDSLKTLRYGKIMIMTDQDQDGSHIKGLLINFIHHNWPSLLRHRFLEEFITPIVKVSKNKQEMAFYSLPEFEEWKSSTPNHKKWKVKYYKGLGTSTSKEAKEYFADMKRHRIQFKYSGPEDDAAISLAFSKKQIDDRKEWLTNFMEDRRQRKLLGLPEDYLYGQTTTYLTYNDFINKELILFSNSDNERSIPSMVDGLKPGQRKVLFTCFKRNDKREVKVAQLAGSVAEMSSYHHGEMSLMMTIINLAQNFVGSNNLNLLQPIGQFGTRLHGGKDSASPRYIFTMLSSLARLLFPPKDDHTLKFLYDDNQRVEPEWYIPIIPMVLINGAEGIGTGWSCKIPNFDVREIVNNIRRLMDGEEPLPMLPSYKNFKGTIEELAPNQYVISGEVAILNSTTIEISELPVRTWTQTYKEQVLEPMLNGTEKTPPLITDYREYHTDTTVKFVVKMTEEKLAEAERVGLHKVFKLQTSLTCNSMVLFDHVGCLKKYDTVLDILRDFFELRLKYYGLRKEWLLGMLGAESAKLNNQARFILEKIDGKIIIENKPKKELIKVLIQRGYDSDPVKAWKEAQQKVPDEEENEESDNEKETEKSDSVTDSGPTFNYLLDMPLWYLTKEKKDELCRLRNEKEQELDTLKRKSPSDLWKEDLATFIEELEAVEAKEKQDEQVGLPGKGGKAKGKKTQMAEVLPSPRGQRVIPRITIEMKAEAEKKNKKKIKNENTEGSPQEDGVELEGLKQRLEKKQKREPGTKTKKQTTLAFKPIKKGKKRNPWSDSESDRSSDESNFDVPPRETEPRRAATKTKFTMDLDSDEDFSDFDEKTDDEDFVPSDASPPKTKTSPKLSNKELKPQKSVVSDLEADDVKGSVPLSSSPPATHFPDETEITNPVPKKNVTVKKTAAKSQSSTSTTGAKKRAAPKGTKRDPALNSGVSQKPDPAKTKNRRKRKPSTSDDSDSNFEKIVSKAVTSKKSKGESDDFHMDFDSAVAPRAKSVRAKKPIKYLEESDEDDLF

Row | Compound | inhibition at 2 µM (NCI-H446 [1]) [%] | Activity (Cell membrane) | pIC50 (HCT-116) | inhibition [2] | Activity [3] | pIC50 (DU-145) | pIC50 (NCI-H1975) | pIC50 (MCF7) | inhibition [4] [%] | IC50 at 96 h [5] [nM] | Activity [6] | Activity [7] | Activity [8] | pIC50 (PC-9) | pIC50 (NCI-H446 [9]) | Activity [10] | Activity (NCI-H446 [11]) [%] | Activity [12] | Activity [13] | pIC50 (PC-3) | also measured
1 | COc1ccc2c(c1)c1ncc3ccccc3c1n2CCCC(=O)NO | > 90 | Active | 6.28 | Active | Non-Toxic | 6.07 | 6.02 | 6.17 | > 95 | > 10000 | Non-Toxic | Non-Toxic | Non-Toxic | 5.90 | 6.92 | Non-Toxic | 77.5 | Non-Toxic | Non-Toxic | 6.01 | LD50 at 336 h [14]: > 1000 mg/kg; inhibition [15]: Active; Cmax [16]: 109 ng/mL; pIC50 (A549): 5.60; Activity (NCI-H446 [17]): 60.3%; Activity (NCI-H446 [18]): 54.8%; Tmax [19]: 1 h; pIC50 (MDA-MB-231): 6.26; Activity (NCI-H446 [20]): Active; Activity [21]: Non-Toxic; pIC50 (NCI-H2228): 5.63; Activity [22]: Non-Toxic
2 | CN(C)CCCn1c2cc3c(cc2c2ncc4ccccc4c21)OCO3 | > 90 | Active | 6.68 | Active | Non-Toxic | 6.28 | 6.13 | 6.46 | > 95 | 9570 | Non-Toxic | Non-Toxic | Non-Toxic | 6.12 | 7.05 | Non-Toxic | 95.3 | Non-Toxic | Non-Toxic | 6.40 | LD50 at 336 h [14]: > 1000 mg/kg; inhibition [15]: Active; Cmax [16]: 284 ng/mL; pIC50 (A549): 5.96; Activity (NCI-H446 [17]): 61.1%; Activity (NCI-H446 [18]): 65.4%; Tmax [19]: 2 h; pIC50 (MDA-MB-231): 6.54; Activity (NCI-H446 [20]): Active; Activity [21]: Non-Toxic; pIC50 (NCI-H2228): 6.06; Activity [22]: Non-Toxic
